Structures are written as SMILES.

The target of test [1] is T1, Rat NHE-3 (Rattus norvegicus, UniProt P26433).
T1 construct: expressed in transfected cells; host or cells: Opossum kidney (OK) cells (ATCC), transfected by electroporation
Put plainly: Cell-based assay of NHE-3 activity (rat NHE-3 prompt inhibition). To be noted: OK cells with rat NHE-3 gene, compound present during pH recovery; for IC50: read-out: Rat NHE3 pIC50 (prompt) (converted). A digest of the protocol: (§1)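 Opossum kidney cells electroporated with rat or human NHE-3, loaded with 5 μM BCECF-AM in NH4Cl-HEPES pH 7.4 for 30 min at RT, then acidified 10 min in Na+-free choline HEPES. Na+-dependent pH recovery rates from BCECF fluorescence, averaged over ≥2 replicates, gave pIC50.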

Test [2] addresses T1, Rat NHE-3. Nature of the test: Cell-based assay of NHE-3 activity (persistent inhibition, after washout). To be noted: OK cells with rat NHE-3 gene, 60 min incubation, recovery initiated 40 min after compound washout; for IC50: read-out: Rat NHE3 pIC50 (persistent) (converted). Summed up: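 OK cells transiently expressing rat NHE-3 were exposed to 0-30 μM compound in NaCl-HEPES pH 7.4 for 60 min, then washed free of drug before NH4Cl/BCECF-AM loading and acid-loading in Na+-free choline buffer. Na+-dependent pH recovery rates (mean of ≥2 replicates) gave pIC50.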

For test [3], the system named is absorption of sodium from the intestinal lumen. Put plainly: Inhibition of intestinal sodium absorption (urinary sodium and fecal form). To be noted: rat; for response vs control in vivo at 3 mg/kg: 3 mg/kg oral gavage, urine 16 h post-dose, asterisks = significance vs vehicle (*P<0.05, **P<0.01, ***P<0.001), read-out: uNa (% of vehicle); for FFS: fecal form score, scale 1 (normal pellet) to 5 (liquid fecal streams), group average, 3 mg/kg oral, 16 h post-dose, vehicle = 1. The test is classed as in vivo, Sprague-Dawley rats. Here is the method: Urinary sodium concentration and fecal form were measured to assess the ability of selected example compounds to inhibit the absorption of sodium from the intestinal lumen. Eight-week old Sprague-Dawley rats were purchased from Charles River Laboratories (Hollister, Calif.), were housed 2 per cage, and acclimated for at least 3 days before study initiation. Animals were fed Harlan Teklad Global 2018 rodent chow (Indianapolis, Ind.) and water ad libitum throughout the study and maintained in a standard light/dark cycle of 6 AM to 6 PM. On the day of the study, between 4 PM and 5 PM, a group of rats (n=6) were dosed via oral gavage with test compound at the dosage indicated or vehicle (water) at a volume of 10 mL/kg. After dose administration animals were placed in individual metabolic cages where they were also fed the same chow in meal form and watered ad libitum. At 16 h post-dose, the urine samples were collected and fecal form was assessed by two independent observations. Fecal forms were scored according to a common scale associated with increasing fecal water to the wettest observation in the cage's collection funnel (1, normal pellet; 2, pellet adhering to sides of collection funnel due to moisture; 3, loss of normal pellet shape; 4, complete loss of shape with a blotting pattern; 5, liquid fecal streams evident). A rat's fecal form score (FFS) was determined by averaging both observational scores for all rats within a group (n=6). In every study the vehicle group average was 1. For urine samples, the volumes were determined gravimetrically and centrifuged at 3,600×g. The supernatants were diluted 100-fold in deionized Milli-Q water then filtered through a 0.2 μm GHP Pall AcroPrep filter plate (Pall Life Sciences, Ann Arbor, Mich.) prior to analysis by ion chromatography. Ten microliters of each filtered extract was injected onto a Dionex ICS-3000 ion chromatograph system (Dionex, Sunnyvale, Calif.). Cations were separated by an isocratic method using 25 mM methanesulfonic acid as the eluent on an IonPac CS12A 2 mm i.d.×250 mm, 8 μm particle size cation exchange column (Dionex). Sodium was quantified using standards prepared from a cation standard mix containing Li^+, Na^+, NH4^+, K^+, Mg^2+, and Ca^2+ (Dionex). The mean mass of sodium urinated for every group in the 16 h period was determined with the vehicle group usually urinating approximately 21 mg sodium. The urine Na (uNa) for rats in the test groups were expressed as a percentage of the vehicle mean and the means were compared to that of the vehicle group by utilizing a one-way analysis of variance coupled with a Dunnett's post hoc test.

A further test concerns the target T2, human NHE-3 (Homo sapiens, UniProt P48764).
T2 construct: expressed in transfected cells; host or cells: Opossum kidney (OK) cells (ATCC), transfected by electroporation
T2 sequence (P48764 26-834): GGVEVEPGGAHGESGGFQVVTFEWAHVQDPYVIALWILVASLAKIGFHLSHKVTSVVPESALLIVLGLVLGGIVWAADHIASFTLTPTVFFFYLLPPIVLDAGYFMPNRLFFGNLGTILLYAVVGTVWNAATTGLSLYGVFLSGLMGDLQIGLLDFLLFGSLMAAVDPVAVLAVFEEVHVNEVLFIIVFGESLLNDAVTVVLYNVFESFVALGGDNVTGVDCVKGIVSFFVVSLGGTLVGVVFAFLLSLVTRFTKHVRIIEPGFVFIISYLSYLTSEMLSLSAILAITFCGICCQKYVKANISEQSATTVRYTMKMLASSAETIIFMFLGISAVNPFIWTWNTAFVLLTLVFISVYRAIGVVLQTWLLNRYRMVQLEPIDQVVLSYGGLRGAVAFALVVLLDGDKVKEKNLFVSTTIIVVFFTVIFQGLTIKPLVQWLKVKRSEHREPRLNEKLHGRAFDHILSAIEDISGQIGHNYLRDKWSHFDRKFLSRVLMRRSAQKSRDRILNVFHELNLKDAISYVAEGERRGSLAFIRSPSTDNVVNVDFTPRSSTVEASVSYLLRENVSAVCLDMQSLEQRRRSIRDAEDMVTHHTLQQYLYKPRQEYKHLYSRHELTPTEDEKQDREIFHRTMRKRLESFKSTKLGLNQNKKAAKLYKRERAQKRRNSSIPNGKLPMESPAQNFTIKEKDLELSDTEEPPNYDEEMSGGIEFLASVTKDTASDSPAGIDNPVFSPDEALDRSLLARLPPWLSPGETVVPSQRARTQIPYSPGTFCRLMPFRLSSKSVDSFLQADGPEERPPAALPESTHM
Put plainly: Cell-based assay of NHE-3 activity (human NHE3 inhibition assay). To be noted: OK cells with human NHE-3 gene, BCECF pH dye, 0-30 μM test compound; for IC50: read-out: Human NHE3 pIC50 (converted). A digest of the protocol:
as §1

T1 sequence (P26433 29-831): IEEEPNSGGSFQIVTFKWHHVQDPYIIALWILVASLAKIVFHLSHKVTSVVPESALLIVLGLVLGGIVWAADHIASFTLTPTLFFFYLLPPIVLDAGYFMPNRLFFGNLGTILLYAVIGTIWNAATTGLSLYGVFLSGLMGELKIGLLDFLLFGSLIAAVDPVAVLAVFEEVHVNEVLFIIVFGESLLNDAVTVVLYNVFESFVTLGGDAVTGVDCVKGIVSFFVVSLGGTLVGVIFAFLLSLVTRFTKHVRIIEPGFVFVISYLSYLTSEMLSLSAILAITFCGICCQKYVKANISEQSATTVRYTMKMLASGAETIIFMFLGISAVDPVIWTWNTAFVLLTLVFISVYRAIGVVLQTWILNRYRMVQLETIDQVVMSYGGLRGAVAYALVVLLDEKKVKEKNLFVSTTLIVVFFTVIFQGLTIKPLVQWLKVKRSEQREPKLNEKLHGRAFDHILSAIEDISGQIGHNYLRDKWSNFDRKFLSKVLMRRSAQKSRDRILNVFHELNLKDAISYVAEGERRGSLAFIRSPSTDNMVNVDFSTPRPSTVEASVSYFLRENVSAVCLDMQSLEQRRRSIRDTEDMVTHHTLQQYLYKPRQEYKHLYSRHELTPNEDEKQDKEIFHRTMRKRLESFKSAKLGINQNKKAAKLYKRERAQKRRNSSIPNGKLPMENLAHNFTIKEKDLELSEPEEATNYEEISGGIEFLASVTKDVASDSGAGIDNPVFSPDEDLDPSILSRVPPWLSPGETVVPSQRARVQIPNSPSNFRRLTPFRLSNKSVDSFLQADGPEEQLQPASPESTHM

For the molecule `CN(CC(=O)O)CC(=O)NC(CCC(=O)NCCOCCOCCNS(=O)(=O)c1cccc([C@@H]2CN(C)Cc3c(Cl)cc(Cl)cc32)c1)(CCC(=O)NCCOCCOCCNS(=O)(=O)c1cccc([C@@H]2CN(C)Cc3c(Cl)cc(Cl)cc32)c1)CCC(=O)NCCOCCOCCNS(=O)(=O)c1cccc([C@@H]2CN(C)Cc3c(Cl)cc(Cl)cc32)c1` [Example 27], the “Rat NHE3 pIC50 (prompt)” value on Rat NHE-3 [1] is “C (C NHE3 pIC50 > 7)”. Besides, the “Rat NHE3 pIC50 (persistent)” value at Rat NHE-3 [2] was “C (C NHE3 pIC50 > 7)”. The response vs control in vivo at 3 mg/kg in test [3] was in the range of 35 to 75%. Besides, the “Human NHE3 pIC50” value at human NHE-3 was “C (C NHE3 pIC50 > 7)”.
As to `CN1Cc2c(Cl)cc(Cl)cc2[C@H](c2cccc(S(=O)(=O)NCCOCCOCCNC(=O)CCC(CCC(=O)NCCOCCOCCNS(=O)(=O)c3cccc([C@@H]4CN(C)Cc5c(Cl)cc(Cl)cc54)c3)(CCC(=O)NCCOCCOCCNS(=O)(=O)c3cccc([C@@H]4CN(C)Cc5c(Cl)cc(Cl)cc54)c3)NC(=O)Cc3nnn[nH]3)c2)C1` [Example 38], the “Rat NHE3 pIC50 (prompt)” value on Rat NHE-3 [1] was “B (B NHE3 pIC50 5-7)”. The “Rat NHE3 pIC50 (persistent)” value at Rat NHE-3 [2] is recorded as “C (C NHE3 pIC50 > 7)”. The response vs control in vivo at 3 mg/kg in test [3] is under 35%. Moreover, the “Human NHE3 pIC50” value at human NHE-3 is reported as “C (C NHE3 pIC50 > 7)”.
As for `CN1Cc2c(Cl)cc(Cl)cc2[C@H](c2cccc(S(=O)(=O)NCCOCCOCCNC(=O)CCC(CCC(=O)NCCOCCOCCNS(=O)(=O)c3cccc([C@@H]4CN(C)Cc5c(Cl)cc(Cl)cc54)c3)(CCC(=O)NCCOCCOCCNS(=O)(=O)c3cccc([C@@H]4CN(C)Cc5c(Cl)cc(Cl)cc54)c3)NC(=O)N[C@@H](CO)C(=O)O)c2)C1` [Example 39], the “Rat NHE3 pIC50 (prompt)” value at Rat NHE-3 [1] is reported as “C (C NHE3 pIC50 > 7)”. Also, the “Rat NHE3 pIC50 (persistent)” value on Rat NHE-3 [2] was “C (C NHE3 pIC50 > 7)”. Also, the response vs control in vivo at 3 mg/kg in test [3] is under 35%. The “Human NHE3 pIC50” value at human NHE-3 was “C (C NHE3 pIC50 > 7)”.
Turning to `CC(O)C(CCC(=O)NCCOCCOCCNS(=O)(=O)c1cccc([C@@H]2CN(C)Cc3c(Cl)cc(Cl)cc32)c1)(CCC(=O)NCCOCCOCCNS(=O)(=O)c1cccc([C@@H]2CN(C)Cc3c(Cl)cc(Cl)cc32)c1)CCC(=O)NCCOCCOCCNS(=O)(=O)c1cccc([C@@H]2CN(C)Cc3c(Cl)cc(Cl)cc32)c1` (stereo partly drawn) [Example 73, N1,N7-bis(2-(2-(2-(3-((S)-6,8-dichloro-2-methyl-1,2,3,4-tetrahydroisoquinolin-4-yl)phenylsulfonamido)ethoxy)ethoxy)ethyl)-4-(3-(2-(2-(2-(3-((S)-6,8-dichloro-2-methyl-1,2,3,4-tetrahydroisoquinolin-4-yl)phenylsulfonamido)ethoxy)ethoxy)ethylamino)-3-oxopropyl)-4-(1-hydroxyethyl)heptanediamide], the IC50 on Rat NHE-3 [1], at Rat NHE-3 [2] and at human NHE-3 was under 0.1 µM each time. For the same molecule, in test [3], the FFS came to 2. Moreover, the response vs control in vivo at 3 mg/kg in test [3] was in the range of 35 to 75%.
For the molecule `CN1Cc2c(Cl)cc(Cl)cc2C(c2cccc(S(=O)(=O)NCCOCCOCCNC(=O)CCC(CCC(=O)NCCOCCOCCNS(=O)(=O)c3cccc(C4CN(C)Cc5c(Cl)cc(Cl)cc54)c3)(CCC(=O)NCCOCCOCCNS(=O)(=O)c3cccc(C4CN(C)Cc5c(Cl)cc(Cl)cc54)c3)NC(=O)N(C)CC(O)C(O)C(O)C(O)CO)c2)C1` (centres unmarked) [Example 29], the “Rat NHE3 pIC50 (prompt)” value at Rat NHE-3 [1] was “C (C NHE3 pIC50 > 7)”. The “Rat NHE3 pIC50 (persistent)” value at Rat NHE-3 [2] is “C (C NHE3 pIC50 > 7)”. The response vs control in vivo at 3 mg/kg in test [3] fell in the range of 35 to 75%. For the same molecule, the “Human NHE3 pIC50” value on human NHE-3 is listed as “C (C NHE3 pIC50 > 7)”.
On to `CCC(=O)NC(CCC(=O)NCCOCCOCCOCCNS(=O)(=O)c1cccc([C@@H]2CN(C)Cc3c(Cl)cc(Cl)cc32)c1)(CCC(=O)NCCOCCOCCOCCNS(=O)(=O)c1cccc([C@@H]2CN(C)Cc3c(Cl)cc(Cl)cc32)c1)CCC(=O)NCCOCCOCCOCCNS(=O)(=O)c1cccc([C@@H]2CN(C)Cc3c(Cl)cc(Cl)cc32)c1` [Example 10, 4-(1-(3-((S)-6,8-dichloro-2-methyl-1,2,3,4-tetrahydroisoquinolin-4-yl)phenylsulfonamido)-13-oxo-3,6,9-trioxa-12-azapentadecan-15-yl)-N1,N7-bis(2-(2-(2-(2-(3-((S)-6,8-dichloro-2-methyl-1,2,3,4-tetrahydroisoquinolin-4-yl)phenylsulfonamido)ethoxy)ethoxy)ethoxy)ethyl)-4-propionamidoheptanediamide], for which the IC50 at Rat NHE-3 [1], on Rat NHE-3 [2] and on human NHE-3 was under 0.1 µM each time. The FFS in test [3] is listed as 2. For the same molecule, the response vs control in vivo at 3 mg/kg in test [3] lay in the range of 35 to 75%.
With `CN1Cc2c(Cl)cc(Cl)cc2[C@H](c2cccc(S(=O)(=O)NCCOCCOCCNC(=O)CCC(CCC(=O)NCCOCCOCCNS(=O)(=O)c3cccc([C@@H]4CN(C)Cc5c(Cl)cc(Cl)cc54)c3)(CCC(=O)NCCOCCOCCNS(=O)(=O)c3cccc([C@@H]4CN(C)Cc5c(Cl)cc(Cl)cc54)c3)NC(N)=O)c2)C1` [Example 8, N1,N7-bis(2-(2-(2-(3-((S)-6,8-dichloro-2-methyl-1,2,3,4-tetrahydroisoquinolin-4-yl)phenylsulfonamido)ethoxy)ethoxy)ethyl)-4-(3-(2-(2-(2-(3-((S)-6,8-dichloro-2-methyl-1,2,3,4-tetrahydroisoquinolin-4-yl)phenylsulfonamido)ethoxy)ethoxy)ethylamino)-3-oxopropyl)-4-ureidoheptanediamide], the IC50 at Rat NHE-3 [1] is 0.1 to 10 µM; on Rat NHE-3 [2], under 0.1 µM; on human NHE-3 it was under 0.1 µM. Besides, the response vs control in vivo at 3 mg/kg in test [3] was under 35%.
`CN1Cc2c(Cl)cc(Cl)cc2[C@H](c2cccc(S(=O)(=O)NCCOCCOCCNC(=O)CCC(CCC(=O)NCCOCCOCCNS(=O)(=O)c3cccc([C@@H]4CN(C)Cc5c(Cl)cc(Cl)cc54)c3)(CCC(=O)NCCOCCOCCNS(=O)(=O)c3cccc([C@@H]4CN(C)Cc5c(Cl)cc(Cl)cc54)c3)NC(=O)NCP(=O)(O)O)c2)C1` [Example 32]: the “Rat NHE3 pIC50 (prompt)” value at Rat NHE-3 [1] is “C (C NHE3 pIC50 > 7)”. For the same molecule, the “Rat NHE3 pIC50 (persistent)” value on Rat NHE-3 [2] is reported as “C (C NHE3 pIC50 > 7)”. In test [3], the FFS stood at 2 and the response vs control in vivo at 3 mg/kg fell in the range of 35 to 75%. In addition, the “Human NHE3 pIC50” value at human NHE-3 was “B (B NHE3 pIC50 5-7)”.
